Assay results: the supplement of paper PMC11208160

Test: recombinant barcode read abundance after kanamycin selection (control-corrected) (log10(CPM+1)); higher = more efficient recombination; sequences stand for … in AGTGCAGAGAAAATCGGCCAGTTTTCTCTGCCTGCAGTCCGCATGCCGT…AGATTTATGCAGCGGACTGCCTTTCTCCCAAAGTGATAAACCGGACAGTATCATGGACCGGTTTTCCCGGTAATCCGTATTTGCAAGGTTGGTTTCACT; site = the 11-nt target
Summary of the method: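 Two replicates per condition were plated: chloramphenicol/ampicillin LB agar for the control, and chloramphenicol/ampicillin/kanamycin with 0.1 mM IPTG for selection. The pooled E. coli screen behind them paired targets with IS621 bridge RNA target-binding loops. Recombination efficiency is expressed from averaged, control-corrected barcode counts per million at recombinant junctions, as log10(CPM+1).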
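Also: IS621 recombinase and bridge RNA in Escherichia coli cells.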

Sequence | recombinant barcode read abundance (log10)
TCGATCCCTTGGGTTCTAACCTGTTGCGT (site CTTTGAACTTA) | 0.315
TCGATCCCTTGGGTTCTAACCTGTTGCGT (site TCGATCCCTAC) | 1.95
TCGCACACTTGGGTTCTAACCTGTTGCTG (site TAGCACACTCG) | 0.0637
TCGCACACTTGGGTTCTAACCTGTTGCTG (site TCGCACACTCA) | 0.548
TCGCGGACTTGGGTTCTAACCTGTTGCCT (site TCACGGACTAG) | 0.464
TCGCGGACTTGGGTTCTAACCTGTTGCCT (site TCCCGGACTAG) | 0.243
TCGCGGACTTGGGTTCTAACCTGTTGCCT (site TCGCGGACTAG) | 0.168
TCGCGGACTTGGGTTCTAACCTGTTGCCT (site TCTCGGACTAG) | 0.0887
TCGGAGTCTTGGGTTCTAACCTGTTGCAT (site TCGGAGTCTAA) | 0.5
TCGGAGTCTTGGGTTCTAACCTGTTGCAT (site TCGGAGTCTAC) | 1.03
TCGGAGTCTTGGGTTCTAACCTGTTGCAT (site TCGGAGTCTAG) | 1.4
TCGGAGTCTTGGGTTCTAACCTGTTGCAT (site TCGGAGTCTAT) | 2.29
TCGGAGTCTTGGGTTCTAACCTGTTGCGC (site CTATGACCTCA) | 0.0526
TCGGAGTCTTGGGTTCTAACCTGTTGCGC (site TCGGAGTCTGC) | 1.37
TCGGAGTCTTGGGTTCTAACCTGTTGCTG (site TCGGAGTCTCA) | 0.963
TCGGAGTCTTGGGTTCTAACCTGTTGCTG (site TCGGAGTCTCG) | 0.446
TCGGATACTTGGGTTCTAACCTGTTGCTT (site TCGGATACTAA) | 0.659
TCGGATACTTGGGTTCTAACCTGTTGCTT (site TCGGATACTAC) | 0.249
TCGGATACTTGGGTTCTAACCTGTTGCTT (site TCGGATACTAG) | 0.759
TCGGATACTTGGGTTCTAACCTGTTGCTT (site TCGGATACTAT) | 0.323

Sequence | recombinant barcode read abundance (log10)
TCGTCACCTTGGGTTCTAACCTGTTGCAT (site CTAGTGGCTCG) | 0
TCGTCACCTTGGGTTCTAACCTGTTGCAT (site TCGTCACCTAT) | 0.0694
TCGTCATCTTGGGTTCTAACCTGTTGCCT (site TCGTCATCTAG) | 0.21
TCGTCATCTTGGGTTCTAACCTGTTGCCT (site TCGTCCTCTAG) | 0.276
TCGTGCCCTTGGGTTCTAACCTGTTGCTG (site TCGTGCCCTAA) | 0.0676
TCGTGCCCTTGGGTTCTAACCTGTTGCTG (site TCGTGCCCTCA) | 0.156
TCGTTCCCTTGGGTTCTAACCTGTTGCTT (site TCGTTCCCTAA) | 0.105
TCGTTCCCTTGGGTTCTAACCTGTTGCTT (site TCGTTGCCTAG) | 0.0502
TCGTTGCCTTGGGTTCTAACCTGTTGCCT (site TCGTTCCCTAA) | 0.695
TCGTTGCCTTGGGTTCTAACCTGTTGCCT (site TCGTTGCCTAG) | 0.533
TCTAACCCTTGGGTTCTAACCTGTTGCGG (site TCAAACCCTCC) | 0.332
TCTAACCCTTGGGTTCTAACCTGTTGCGG (site TCCAACCCTCC) | 0.0105
TCTAACCCTTGGGTTCTAACCTGTTGCGG (site TCGAACCCTCC) | 0.091
TCTAACCCTTGGGTTCTAACCTGTTGCGG (site TCTAACCCTCC) | 1.09
TCTAAGTCTTGGGTTCTAACCTGTTGCCG (site TCTAAGTCTAG) | 0.0709
TCTAAGTCTTGGGTTCTAACCTGTTGCCG (site TCTAAGTCTCG) | 0.137
TCTAAGTCTTGGGTTCTAACCTGTTGCCG (site TCTAAGTCTGG) | 0.0885
TCTAAGTCTTGGGTTCTAACCTGTTGCCG (site TCTAAGTCTTG) | 0.483
TCTACTTCTTGGGTTCTAACCTGTTGCCT (site TCTACATCTAG) | 0.0183
TCTACTTCTTGGGTTCTAACCTGTTGCCT (site TCTACCTCTAG) | 0.123

Sequence | recombinant barcode read abundance (log10)
TCTACTTCTTGGGTTCTAACCTGTTGCCT (site TCTACGTCTAG) | 0.0937
TCTACTTCTTGGGTTCTAACCTGTTGCCT (site TCTACTTCTAG) | 0.136
TCTAGACCTTGGGTTCTAACCTGTTGCCT (site TCTAGAACTAG) | 0
TCTAGACCTTGGGTTCTAACCTGTTGCCT (site TCTAGACCTAG) | 0.0778
TCTAGACCTTGGGTTCTAACCTGTTGCCT (site TCTAGAGCTAG) | 0.139
TCTAGACCTTGGGTTCTAACCTGTTGCCT (site TCTAGATCTAG) | 0.03
TCTAGAGCTTGGGTTCTAACCTGTTGCGG (site CCTCGAGCTCC) | 0.176
TCTAGAGCTTGGGTTCTAACCTGTTGCGG (site TCTAGAGCTCC) | 1.61
TCTAGTCCTTGGGTTCTAACCTGTTGCCT (site TCTAGACCTTG) | 0.418
TCTAGTCCTTGGGTTCTAACCTGTTGCCT (site TCTAGTCCTAG) | 0.036
TCTCAACCTTGGGTTCTAACCTGTTGCCT (site TCTAAACCTAG) | 0.0445
TCTCAACCTTGGGTTCTAACCTGTTGCCT (site TCTCAACCTAG) | 1.33
TCTCAGGCTTGGGTTCTAACCTGTTGCCG (site TCACAGGCTCG) | 0.203
TCTCAGGCTTGGGTTCTAACCTGTTGCCG (site TCTCAGGCTCG) | 0.0148
TCTCAGTCTTGGGTTCTAACCTGTTGCGG (site TCCCAGTCTCA) | 0.0631
TCTCAGTCTTGGGTTCTAACCTGTTGCGG (site TCTCAGTCTCC) | 1.14
TCTCCAGCTTGGGTTCTAACCTGTTGCCT (site TCGCAAGCTAG) | 0.0305
TCTCCAGCTTGGGTTCTAACCTGTTGCCT (site TCTCCAGCTAG) | 1.13
TCTCGAGCTTGGGTTCTAACCTGTTGCGA (site CTGGCGCCTAT) | 0.839
